Where two headings read alike, the source gives them in different places.
Legend:
[1] = molecular target: T1, human CB2 receptor (Homo sapiens, UniProt P34972); assay: cAMP accumulation assay, CHO cells expressing CB2; assay type: cell-based; conditions: in words; standard ligands partly from the literature
[2] = molecular target: T2, human GPR18 (Homo sapiens, UniProt Q14330); conditions: for functional property at GPR18 (agonist/antagonist): in words; for agonist effect on β-arrestin recruitment at GPR18: test compound 10 µM, related to effect of Δ9-THC 10 µM = 100%
T2 sequence (Q14330 1-331): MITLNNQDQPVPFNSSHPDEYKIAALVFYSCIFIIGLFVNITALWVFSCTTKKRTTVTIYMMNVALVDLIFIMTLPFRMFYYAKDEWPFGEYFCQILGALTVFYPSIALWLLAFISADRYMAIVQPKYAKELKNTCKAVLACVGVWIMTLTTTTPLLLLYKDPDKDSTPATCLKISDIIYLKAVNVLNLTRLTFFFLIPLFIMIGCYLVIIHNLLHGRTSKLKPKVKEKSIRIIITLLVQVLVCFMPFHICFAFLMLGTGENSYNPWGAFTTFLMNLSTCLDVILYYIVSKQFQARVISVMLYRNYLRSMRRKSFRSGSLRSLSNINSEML

[3] = molecular target: T2, human GPR18; assay: cell-based; conditions: for inhibition at 10 µM: CHO, read-out: % inhibition of Δ9-THC (10 µM)-induced β-arrestin recruitment at GPR18, test compound at 10 µM; for IC50: GPR18 IC50, β-arrestin recruitment, antagonist mode vs. Δ9-THC (10 µM)
[4] = molecular target: human GPR55 (Homo sapiens, UniProt Q9Y2T6); assay: β-arrestin recruitment assay (PathHunter), CHO cells expressing GPR55; conditions: for inhibition at 10 µM: CHO; for functional property at GPR55 (agonist/antagonist): in words; for IC50: antagonist mode vs. LPI (1 µM); for agonist effect on β-arrestin recruitment at GPR55: test compound 10 µM, related to effect of LPI 1 µM = 100%
[5] = molecular target: human CB1 receptor (Homo sapiens, UniProt P21554); assay: biochemical; assay type: binding; conditions: for inhibition at 10 µM: vs. [3H]CP55,940, read-out: % inhibition of radioligand binding at CB1; for Ki: membranes of CHO cells expressing human CB1, three independent experiments in duplicates, read-out: Ki CB1, heterologous competition vs. [3H]CP55,940
[6] = molecular target: T1, human CB2 receptor; assay: Radioligand binding (heterologous competition) vs. [3H]CP55,940 at CB2; conditions: for inhibition at 10 µM: read-out: % inhibition of radioligand binding at CB2
[7] = read-out: % inhibition of LPI (1 µM)-induced β-arrestin recruitment at GPR55
[8] = GPR55 IC50, β-arrestin recruitment
[9] = Ki CB2, heterologous competition vs. [3H]CP55,940, membranes of CHO cells expressing human CB2, three independent experiments in duplicates
[10] = membranes of CHO cells expressing human CB2, three independent experiments in duplicates, read-out: Ki CB2, heterologous competition vs. [3H]CP55,940
[11] = read-out: % inhibition of LPI (1 µM)-induced β-arrestin recruitment at GPR55, test compound at 10 µM

Chain of human GPR55 (Q9Y2T6 whole entry): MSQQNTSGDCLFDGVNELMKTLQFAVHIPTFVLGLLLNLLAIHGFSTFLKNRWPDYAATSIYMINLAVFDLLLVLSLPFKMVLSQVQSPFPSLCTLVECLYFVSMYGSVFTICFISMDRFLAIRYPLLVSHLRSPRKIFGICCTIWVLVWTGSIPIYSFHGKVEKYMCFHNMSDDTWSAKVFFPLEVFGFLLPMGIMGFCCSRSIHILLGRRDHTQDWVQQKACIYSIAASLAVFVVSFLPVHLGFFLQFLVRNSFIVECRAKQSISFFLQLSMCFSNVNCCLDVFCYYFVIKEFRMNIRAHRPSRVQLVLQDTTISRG
T1 sequence (P34972 whole entry): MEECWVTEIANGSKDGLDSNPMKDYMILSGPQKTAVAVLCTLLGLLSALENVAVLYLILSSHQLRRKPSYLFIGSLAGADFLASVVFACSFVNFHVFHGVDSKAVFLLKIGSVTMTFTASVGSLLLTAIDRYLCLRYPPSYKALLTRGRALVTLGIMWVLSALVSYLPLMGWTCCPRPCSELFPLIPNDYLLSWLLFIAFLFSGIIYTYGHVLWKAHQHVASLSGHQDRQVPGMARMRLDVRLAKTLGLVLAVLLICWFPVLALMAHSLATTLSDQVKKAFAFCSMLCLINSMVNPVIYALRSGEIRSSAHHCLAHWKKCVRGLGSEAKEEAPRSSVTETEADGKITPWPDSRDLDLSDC
Chain of human CB1 receptor (P21554 whole entry): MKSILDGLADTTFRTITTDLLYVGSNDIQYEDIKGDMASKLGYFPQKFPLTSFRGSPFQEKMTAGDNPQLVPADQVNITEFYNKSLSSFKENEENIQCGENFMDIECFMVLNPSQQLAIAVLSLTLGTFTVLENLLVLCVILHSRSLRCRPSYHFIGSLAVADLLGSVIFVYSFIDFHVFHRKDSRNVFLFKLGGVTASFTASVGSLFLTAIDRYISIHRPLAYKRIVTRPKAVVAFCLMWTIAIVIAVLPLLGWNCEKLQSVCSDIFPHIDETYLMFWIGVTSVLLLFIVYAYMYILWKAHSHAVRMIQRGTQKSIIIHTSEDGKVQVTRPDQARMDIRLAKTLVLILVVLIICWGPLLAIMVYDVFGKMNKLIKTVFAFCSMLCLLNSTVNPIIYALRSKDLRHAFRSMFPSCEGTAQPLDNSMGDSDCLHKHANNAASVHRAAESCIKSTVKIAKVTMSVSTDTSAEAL

SMILES	inhibition at 10 µM [3] [%]	IC50 [3] [µM]	EC50 [4] [µM]	agonist effect on β-arrestin recruitment at GPR55 [4] [%]	agonist effect on β-arrestin recruitment at GPR18 [2] [%]	EC50 [3] [µM]	IC50 [4, 8] [µM]	inhibition at 10 µM [5] [%]	Ki [5] [µM]	Ki [6, 10] [µM]	inhibition at 10 µM [4, 11] [%]	other results
CCCCCc1cc(O)c2c(c1)OC(C)(C)[C@@H]1CCC(C)=C[C@@H]21 [Compound 1, Δ^9-tetrahydrocannabinol, reference compound]	0	> 10	> 10	0	–	–	–	–	–	–	–	functional property at CB2 (agonist/antagonist) [1]: agonist; functional property at GPR18 (agonist/antagonist) [2]: agonist; EC50 ([2]; read-out: GPR18 EC50, β-arrestin recruitment, agonist mode): 4.61 ± 0.5 µM; inhibition at 10 µM [4, 7]: 65%; functional property at GPR55 (agonist/antagonist) [4]: antagonist; IC50 ([4]; read-out: GPR55 IC50, β-arrestin recruitment): 14.2 ± 5.4 µM
Cc1c(C(=O)NN2CCCCC2)nn(-c2ccc(Cl)cc2Cl)c1-c1ccc(Cl)cc1 [Compound 5, rimonabant, reference compound]	94	–	–	–	0	> 10	> 10	–	–	–	–	functional property at CB2 (agonist/antagonist) [1]: antagonist; functional property at GPR18 (agonist/antagonist) [2]: antagonist; IC50 ([2]; read-out: GPR18 IC50, β-arrestin recruitment, antagonist mode vs. Δ9-THC (10 µM)): 10.1 ± 1.3 µM; inhibition at 10 µM [4, 7]: 0%; functional property at GPR55 (agonist/antagonist) [4]: agonist; EC50 ([4]; read-out: GPR55 EC50, β-arrestin recruitment, agonist mode): 2.01 ± 0.66 µM
C=CCc1ccc(O)c(-c2ccc(O)c(CC=C)c2)c1 [Compound 10, honokiol, reference compound]	45	~10	> 10	27	0	> 10	~10	–	–	–	–	inhibition at 10 µM [4, 7]: 42%
Oc1ccccc1-c1ccccc1O [Compound 40, 2-(2-hydroxyphenyl)phenol]	–	–	–	–	–	–	–	11	> 1	–	–	Ki [6, 9]: > 1 µM; inhibition at 10 µM [6]: 0%
Cc1ccc(O)c(-c2cc(C)ccc2O)c1 [Compound 41]	0	> 10	> 10	30	20	> 10	> 10	23	> 1	> 1	0	Ki [6, 9]: > 0.01 µM; inhibition at 10 µM ([6]; at 10 µM, vs. [3H]CP55,940): 30%
CCc1ccc(O)c(-c2cc(CC)ccc2O)c1 [Compound 42]	12	> 10	> 10	23	6	> 10	> 10	–	2.13 ± 0.84	2.87 ± 0.77	0	–
CCCCCCc1ccc(O)c(-c2cc(CCCCCC)ccc2O)c1 [Compound 45]	127	11.7 ± 2.8	> 10	0	0	> 10	> 10	–	4.64 ± 0.58	1.83 ± 0.19	0	–
CCCc1ccc(O)c(-c2ccccc2O)c1 [Compound 46]	0	> 10	> 10	25	0	> 10	> 10	45	–	–	37	inhibition at 10 µM ([6]; at 10 µM, vs. [3H]CP55,940): 49%; Ki ([6]; vs. [3H]CP55,940, read-out: Ki CB2): ~10 µM
CCCCc1ccc(O)c(-c2ccccc2O)c1 [Compound 47]	24	> 10	> 10	2	0	> 10	> 10	40	~1	2.03 ± 0.88	35	–
CCCCCc1ccc(O)c(-c2ccccc2O)c1 [Compound 48]	18	> 10	~10	42	0	> 10	> 10	–	6.59 ± 2.56	1.16 ± 0.29	25	–
CCCCCCc1ccc(O)c(-c2ccccc2O)c1 [Compound 49]	48	~10	> 10	39	0	> 10	> 10	–	6.63 ± 5.03	1.5 ± 0.64	34	–
CCCc1ccc(O)c(-c2cc(C)ccc2O)c1 [Compound 50]	21	> 10	> 10	26	0	> 10	> 10	20	> 1	–	4	Ki [6, 9]: 7.38 ± 2.76 µM
CCCCc1ccc(O)c(-c2cc(C)ccc2O)c1 [Compound 51]	44	~10	> 10	18	0	> 10	> 10	44	~1	1.69 ± 0.53	0	–
CCCCCc1ccc(O)c(-c2cc(C)ccc2O)c1 [Compound 52]	45	~10	> 10	9	0	> 10	> 10	–	1.23 ± 0.47	0.517 ± 0.101	0	–
CCCCCCc1ccc(O)c(-c2cc(C)ccc2O)c1 [Compound 53]	118	11.5 ± 1.3	> 10	28	0	> 10	> 10	–	0.822 ± 0.224	0.273 ± 0.096	0	–
CCCc1ccc(O)c(-c2cc(CC)ccc2O)c1 [Compound 54]	67	10.5 ± 0.9	> 10	0	0	> 10	> 10	43	~1	0.856 ± 0.367	19	–
CCCCc1ccc(O)c(-c2cc(CC)ccc2O)c1 [Compound 55]	40	~10	> 10	2	0	> 10	> 10	–	5.76 ± 2.85	0.235 ± 0.101	18	selectivity for CB2 receptors over CB1 ([6]; from Ki values): ~25 fold
CCCCCc1ccc(O)c(-c2cc(CC)ccc2O)c1 [Compound 56]	95	13.6 ± 0.7	> 10	3	0	> 10	> 10	–	0.634 ± 0.297	0.161 ± 0.033	2	–
CCCCCCc1ccc(O)c(-c2cc(CC)ccc2O)c1 [Compound 57]	113	12.5 ± 0.8	> 10	–	0	> 10	> 10	–	0.386 ± 0.029	–	0	Ki [6, 9]: 0.083 ± 0.0118 µM
CCCCc1ccc(O)c(-c2cc(CCC)ccc2O)c1 [Compound 58]	104	13.5 ± 1.7	> 10	21	0	> 10	~10	–	3.61 ± 0.17	0.468 ± 0.133	44	–
CCCc1ccc(O)c(-c2cc(C(C)(C)C)ccc2O)c1 [Compound 59]	54	~10	> 10	0	0	> 10	~10	–	5.81 ± 2.67	0.489 ± 0.049	54	–

Source: paper PMC3813752 (PLoS ONE, 2013)
